# Target: T1, human μ opiate receptor (Homo sapiens, UniProt P35372)
# T1 construct: purchased PerkinElmer Life Sciences, Zaventem, Belgium RB-HOM; host or cells: CHO-K1 cells (membrane preparation)
# Experiment: Affinity for the human μ opiate receptor ([3H]-naloxone displacement, CHO-K1 receptor membrane preparation, SPA)
# Type: binding
# Details: test concentration of 1 μM; read-out: μ (binding on the μ opioid receptor, % inhibition)
# Summary of the method: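 Membranes from CHO-K1 cells expressing the human μ opiate receptor (15-40 μg protein per well) were incubated with test compound, 1 nmol/l [3H]-naloxone and WGA-SPA beads in 50 mmol/l Tris-HCl with 0.06% BSA for 90 minutes at room temperature. Values are % inhibition of specific binding at 1 μmol/l.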
# T1 sequence (P35372 whole entry): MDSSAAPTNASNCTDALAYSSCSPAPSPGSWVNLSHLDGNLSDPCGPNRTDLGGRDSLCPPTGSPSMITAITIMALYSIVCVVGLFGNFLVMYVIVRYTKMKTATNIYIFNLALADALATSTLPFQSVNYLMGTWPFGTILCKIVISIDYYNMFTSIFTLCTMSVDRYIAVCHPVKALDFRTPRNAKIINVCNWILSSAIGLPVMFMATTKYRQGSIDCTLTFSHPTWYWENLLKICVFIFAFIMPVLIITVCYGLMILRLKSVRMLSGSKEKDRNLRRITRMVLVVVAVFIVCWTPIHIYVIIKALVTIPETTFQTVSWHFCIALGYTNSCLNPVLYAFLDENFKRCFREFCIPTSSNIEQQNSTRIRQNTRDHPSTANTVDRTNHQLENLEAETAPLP
row,Structure (SMILES),inhibition at 1 µM
1,"COc1ccc(S(=O)(=O)N2CCCC2COCC(=O)NCCC2CCC(C(c3cccs3)N(C)C)CC2)cc1 (centres unmarked) [Example 77, N-(2-(4-((dimethylamino)(thiophen-2-yl)methyl)cyclohexyl)ethyl)-2-((1-(4-methoxyphenylsulfonyl)pyrrolidin-2-yl)methoxy)acetamide]",96%
2,"CN(C)C(c1ccccc1)C1CCC(CNC(=O)COC2CCCCC2N(C)S(=O)(=O)c2ccc(Cl)c(Cl)c2)CC1 (centres unmarked) [Example 78, 2-(2-(3,4-dichloro-N-methylphenylsulfonamido)cyclohexyloxy)-N-((4-((dimethylamino)(phenyl)methyl)cyclohexyl)methyl)acetamide]",95%
3,"COc1cc(C)c(S(=O)(=O)N(C)CCOCC(=O)NC2CCC(C(c3ccccc3)N(C)C)CC2)c(C)c1C (centres unmarked) [Example 80, N-(4-((dimethylamino) (phenyl)methyl)cyclohexyl)-2-(2-(4-methoxy-N,2,3,6-tetramethylphenylsulfonamido)ethoxy)acetamide]",93%
4,"CN(C)C(c1ccccc1)C1CCC(CNC(=O)COC2CCN(S(=O)(=O)c3ccc(Cl)cc3)C2)CC1 (centres unmarked) [Example 81, 2-(1-(4-chlorophenylsulfonyl)pyrrolidin-3-yloxy)-N-((4-((dimethylamino)(phenyl)methyl)cyclohexyl)methyl)acetamide]",91%
5,"Cc1ccc(S(=O)(=O)N(C)CCOCC(=O)NCCC2CCC(C(c3cccs3)N(C)C)CC2)cc1 (centres unmarked) [Example 82, N-(2-(4-((dimethylamino)(thiophen-2-yl)methyl)cyclohexyl)ethyl)-2-(2-(N,4-dimethylphenylsulfonamido)ethoxy)acetamide]",95%
6,"CN(C)C(c1cccs1)C1CCC(NC(=O)COCCN(C)S(=O)(=O)c2ccc(Cl)cc2)CC1 (centres unmarked) [Example 83, 2-(2-(4-chloro-N-methylphenylsulfonamido)ethoxy)-N-(4-((dimethylamino) (thiophen-2-yl)methyl)cyclohexyl)acetamide]",94%
7,"COc1cc(C)c(S(=O)(=O)N(C)CCOCC(=O)NCCC2CCC(C(c3cccs3)N(C)C)CC2)c(C)c1 (centres unmarked) [Example 84, N-(2-(4-((dimethylamino)(thiophen-2-yl)methyl)cyclohexyl)ethyl)-2-(2-(4-methoxy-N,2,6-trimethylphenylsulfonamido)ethoxy)acetamide]",95%
8,"CN(C)C(c1cccs1)C1CCC(CCNC(=O)COCCN(C)S(=O)(=O)c2ccc(F)cc2)CC1 (centres unmarked) [Example 85, N-(2-(4-((dimethylamino)(thiophen-2-yl)methyl)cyclohexyl)ethyl)-2-(2-(4-fluoro-N-methylphenylsulfonamido)ethoxy)acetamide]",92%
9,"COc1cc(C)c(S(=O)(=O)N2CCC(OCC(=O)NCC3CCC(C(c4cccs4)N(C)C)CC3)C2)c(C)c1 (centres unmarked) [Example 86, N-((4-((dimethylamino)(thiophen-2-yl)methyl)cyclohexyl)methyl)-2-(1-(4-methoxy-2,6-dimethylphenylsulfonyl)pyrrolidin-3-yloxy)acetamide]",95%
10,"CN(C)C(c1cccc(F)c1)C1CCC(CNC(=O)COCC2CCCCN2S(=O)(=O)c2ccc(Cl)c(Cl)c2)CC1 (centres unmarked) [Example 87, 2-((1-(3,4-dichlorophenylsulfonyl)piperidin-2-yl)methoxy)-N-((4-((dimethylamino)(3-fluorophenyl)methyl)cyclohexyl)methyl)acetamide]",93%
11,"COc1ccc(S(=O)(=O)N2CCCCC2COCC(=O)NCC2CCC(C(c3ccccc3)N(C)C)CC2)cc1 (centres unmarked) [Example 88, N-((4-((dimethylamino)(phenyl)methyl)cyclohexyl)methyl)-2-((1-(4-methoxyphenylsulfonyl)piperidin-2-yl)methoxy)acetamide]",94%
12,"COc1ccc(S(=O)(=O)N2CCCCC2CCOCC(=O)NCC2CCC(C(c3ccccc3)N(C)C)CC2)cc1 (centres unmarked) [Example 89, N-((4-((dimethylamino)(phenyl)methyl)cyclohexyl)methyl)-2-(2-(1-(4-methoxyphenylsulfonyl)piperidin-2-yl)ethoxy)acetamide]",93%
13,"COc1ccc(S(=O)(=O)N2CCCCC2CCOCC(=O)NCC2CCC(C(c3cccs3)N(C)C)CC2)cc1 (centres unmarked) [Example 90, N-((4-((dimethylamino)(thiophen-2-yl)methyl)cyclohexyl)methyl)-2-(2-(1-(4-methoxyphenylsulfonyl)piperidin-2-yl)ethoxy)acetamide]",95%
14,"CN(C)C(c1ccccc1)C1CCC(CNC(=O)COCCN(C)S(=O)(=O)c2cccc(C(F)(F)F)c2)CC1 (centres unmarked) [Example 91, N-((4-((dimethylamino)(phenyl)methyl)cyclohexyl)methyl)-2-(2-(N-methyl-3-(trifluoromethyl)phenylsulfonamido)ethoxy)acetamide]",91%
15,"CN(C)C(c1cccs1)C1CCC(CNC(=O)COCCN(C)S(=O)(=O)c2cccc(C(F)(F)F)c2)CC1 (centres unmarked) [Example 92, N-((4-((dimethylamino)(thiophen-2-yl)methyl)cyclohexyl)methyl)-2-(2-(N-methyl-3-(trifluoromethyl)phenylsulfonamido)ethoxy)acetamide]",94%
16,"CN(C)C(c1cccs1)C1CCC(CNC(=O)COCCN(C)S(=O)(=O)c2ccc(OC(F)(F)F)cc2)CC1 (centres unmarked) [Example 93, N-((4-((dimethylamino)(thiophen-2-yl)methyl)cyclohexyl)methyl)-2-(2-(N-methyl-4-(trifluoromethoxy)phenylsulfonamido)ethoxy)acetamide]",95%
17,"COc1ccc(S(=O)(=O)N2CCC(OCC(=O)NCCC3CCC(C(c4cccs4)N(C)C)CC3)C2)cc1OC (centres unmarked) [Example 94, 2-(1-(3,4-dimethoxyphenylsulfonyl)pyrrolidin-3-yloxy)-N-(2-(4-((dimethylamino)(thiophen-2-yl)methyl)cyclohexyl)ethyl)acetamide]",93%

# Source: US8106055B2, “Substituted amide compounds” (Gruenenthal GmbH, priority 2007, dated 2012)
